Test system: 475296-252-R-J1-PDC spheroid viability
Assay: Anticancer human tumor 475296-252-R-J1-PDC patient-derived rectal carcinoma cell line growth inhibition [PI3K]
Settings: spheroids with HUVEC and MSC; for IC50: curve of first compound; for viability, T/C: stronger effect = lower value
Outline: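 Three cell types, namely tumor cells, endothelial cells and mesenchymal stem cells, formed each spheroid. Combinations with four PI3K inhibitors were screened at clinically achievable concentrations decreasing by half-log, and spheroid viability was recorded.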

[1] = second compound 0.0316 µM, first compound 0.0316 µM
[2] = second compound 0.0316 µM, first compound 0.1 µM
[3] = second compound 0.0316 µM, first compound 0.316 µM
[4] = second compound 0.0316 µM, first compound 1 µM
[5] = second compound 0.0316 µM, first compound 3.16 µM
[6] = second compound 0.0316 µM, first compound 10 µM
[7] = second compound 0.1 µM, first compound 0.0316 µM
[8] = second compound 0.1 µM, first compound 0.1 µM
[9] = second compound 0.1 µM, first compound 0.316 µM
[10] = second compound 0.1 µM, first compound 1 µM
[11] = second compound 0.1 µM, first compound 3.16 µM
[12] = second compound 0.1 µM, first compound 10 µM
[13] = second compound 0.316 µM, first compound 0.0316 µM
[14] = second compound 0.316 µM, first compound 0.1 µM
[15] = second compound 0.316 µM, first compound 0.316 µM
[16] = second compound 0.316 µM, first compound 1 µM
[17] = second compound 0.316 µM, first compound 3.16 µM
[18] = second compound 0.316 µM, first compound 10 µM
[19] = second compound 1 µM, first compound 0.0316 µM
[20] = second compound 1 µM, first compound 0.1 µM
[21] = second compound 1 µM, first compound 0.316 µM
[22] = second compound 1 µM, first compound 1 µM
[23] = second compound 1 µM, first compound 3.16 µM
[24] = second compound 1 µM, first compound 10 µM
[25] = second compound 3.16 µM, first compound 0.0316 µM
[26] = second compound 3.16 µM, first compound 0.1 µM
[27] = second compound 3.16 µM, first compound 0.316 µM
[28] = second compound 3.16 µM, first compound 1 µM
[29] = second compound 3.16 µM, first compound 3.16 µM
[30] = second compound 3.16 µM, first compound 10 µM
[31] = second compound 10 µM, first compound 0.0316 µM
[32] = second compound 10 µM, first compound 0.1 µM
[33] = second compound 10 µM, first compound 0.316 µM
[34] = second compound 10 µM, first compound 1 µM
[35] = second compound 10 µM, first compound 3.16 µM
[36] = second compound 10 µM, first compound 10 µM
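Note: spheroids exposed to agents for seven days before readout.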

With `Cn1nccc1Nc1nccc(-c2ccn(C(CO)c3ccc(Cl)c(F)c3)c(=O)c2)n1` (stereo unspecified) + CC(Nc1ncnc2nc[nH]c12)c1cc2cccc(Cl)c2c(=O)n1-c1ccccc1 the IC50 (second compound 0.0316 µM) was > 10 µM, the IC50 (second compound 0.1 µM) was > 10 µM and the IC50 (second compound 0.316 µM) was > 10 µM. The IC50 (second compound 1 µM) was > 10 µM, the IC50 (second compound 3.16 µM) was > 10 µM and the IC50 (second compound 10 µM) was > 10 µM. The viability, T/C [1] was 94.3%, the viability, T/C [2] was 102% and the viability, T/C [3] was 89.8%. The viability, T/C [4] was 92.2%, the viability, T/C [5] was 92.9% and the viability, T/C [6] was 70.7%. It also gave a viability, T/C [7] of 90.2%, a viability, T/C [8] of 91.3% and a viability, T/C [9] of 96.1%. For the same molecule, the viability, T/C [10] was 86.9%, the viability, T/C [11] was 80.7% and the viability, T/C [12] was 77.4%. For the same molecule, the viability, T/C [13] was 93.4%, the viability, T/C [14] was 95.2% and the viability, T/C [15] was 101%. For the same molecule, the viability, T/C [16] was 92.8%, the viability, T/C [17] was 86.9% and the viability, T/C [18] was 65.5%. For the same molecule, the viability, T/C [19] was 97.8%, the viability, T/C [20] was 97.7% and the viability, T/C [21] was 98.5%. For the same molecule, the viability, T/C [22] was 89.2%, the viability, T/C [23] was 93.6% and the viability, T/C [24] was 59.1%. It also gave a viability, T/C [25] of 97.4%, a viability, T/C [26] of 96.8% and a viability, T/C [27] of 89.2%. The viability, T/C [28] was 80.4%, the viability, T/C [29] was 82.2% and the viability, T/C [30] was 59.1%. It also gave a viability, T/C [31] of 90.9%, a viability, T/C [32] of 80.6% and a viability, T/C [33] of 91.2%. The viability, T/C [34] was 83.6%, the viability, T/C [35] was 76.4% and the viability, T/C [36] was 54.9%.
In the case of `C=CC(=O)N1CCN(c2nc(=O)n(-c3c(C)ccnc3C(C)C)c3nc(-c4c(O)cccc4F)c(F)cc23)C(C)C1` (stereo unspecified) + CC(Nc1ncnc2nc[nH]c12)c1cc2cccc(Cl)c2c(=O)n1-c1ccccc1, the IC50 (second compound 0.0316 µM) is reported as > 10 µM, the IC50 (second compound 0.1 µM) is reported as > 10 µM and the IC50 (second compound 0.316 µM) is reported as > 10 µM. The IC50 (second compound 1 µM) was > 10 µM, the IC50 (second compound 3.16 µM) was > 10 µM and the IC50 (second compound 10 µM) was > 10 µM. For the same molecule, the viability, T/C [1] was 110%, the viability, T/C [2] was 98.7% and the viability, T/C [3] was 103%. The viability, T/C [4] was 89%, the viability, T/C [5] was 102% and the viability, T/C [6] was 103%. The viability, T/C [7] was 95.7%, the viability, T/C [8] was 92% and the viability, T/C [9] was 105%. It also gave a viability, T/C [10] of 87.9%, a viability, T/C [11] of 109% and a viability, T/C [12] of 101%. For the same molecule, the viability, T/C [13] was 93.9%, the viability, T/C [14] was 90.2% and the viability, T/C [15] was 87.4%. The viability, T/C [16] was 96%, the viability, T/C [17] was 106% and the viability, T/C [18] was 116%. For the same molecule, the viability, T/C [19] was 95.3%, the viability, T/C [20] was 97.2% and the viability, T/C [21] was 91.8%. It also gave a viability, T/C [22] of 92.1%, a viability, T/C [23] of 106% and a viability, T/C [24] of 93.5%. For the same molecule, the viability, T/C [25] was 96.2%, the viability, T/C [26] was 92.9% and the viability, T/C [27] was 99.4%. For the same molecule, the viability, T/C [28] was 107%, the viability, T/C [29] was 103% and the viability, T/C [30] was 90.2%. The viability, T/C [31] was 83.8%, the viability, T/C [32] was 91.9% and the viability, T/C [33] was 86.9%. For the same molecule, the viability, T/C [34] was 80.7%, the viability, T/C [35] was 95.8% and the viability, T/C [36] was 95.6%.
`Cn1nccc1Nc1nccc(-c2ccn(C(CO)c3ccc(Cl)c(F)c3)c(=O)c2)n1` (stereo unspecified) + Cc1nc(NC(=O)N2CCCC2C(N)=O)sc1-c1ccnc(C(C)(C)C(F)(F)F)c1 was tested, and the IC50 (second compound 0.0316 µM) was > 10 µM, the IC50 (second compound 0.1 µM) was > 10 µM and the IC50 (second compound 0.316 µM) was > 10 µM. For the same molecule, the IC50 (second compound 1 µM) was > 10 µM, the IC50 (second compound 3.16 µM) was > 10 µM and the IC50 (second compound 10 µM) was 1.44 µM. For the same molecule, the viability, T/C [1] was 108%, the viability, T/C [2] was 94.2% and the viability, T/C [3] was 106%. It also gave a viability, T/C [4] of 88.9%, a viability, T/C [5] of 99.6% and a viability, T/C [6] of 79.2%. The viability, T/C [7] was 95.8%, the viability, T/C [8] was 87.3% and the viability, T/C [9] was 94.6%. It also gave a viability, T/C [10] of 91.4%, a viability, T/C [11] of 99.6% and a viability, T/C [12] of 75.9%. It also gave a viability, T/C [13] of 105%, a viability, T/C [14] of 108% and a viability, T/C [15] of 87.2%. The viability, T/C [16] was 85%, the viability, T/C [17] was 81.1% and the viability, T/C [18] was 68.5%. It also gave a viability, T/C [19] of 92.1%, a viability, T/C [20] of 91.5% and a viability, T/C [21] of 91%. It also gave a viability, T/C [22] of 84.5%, a viability, T/C [23] of 88% and a viability, T/C [24] of 59.9%. The viability, T/C [25] was 85.9%, the viability, T/C [26] was 89.3% and the viability, T/C [27] was 79.8%. It also gave a viability, T/C [28] of 79.1%, a viability, T/C [29] of 58.8% and a viability, T/C [30] of 50.7%. It also gave a viability, T/C [31] of 87.7%, a viability, T/C [32] of 86% and a viability, T/C [33] of 83.7%. The viability, T/C [34] was 63.1%, the viability, T/C [35] was 21.8% and the viability, T/C [36] was 8.46%.

Source: PubChem BioAssay AID1963980 (Molecular Pharmacology Branch, DTP, NCI, 2024)
